The source of these data is ChEMBL document CHEMBL1135012, “Reductively activated disulfide prodrugs of paclitaxel” (Bioorg Med Chem Lett, 2002).

Data set [1] can be described thus: Compound was evaluated for its cytotoxicity against L2987 lung carcinoma cells. The data set is classed as functional, cell-based. As to conditions: Homo sapiens.
A short description of data set [2]: Maximum Tolerated Dose required for the compound to regress the tumors for the Antitumor activity: No effective activity. It counts as functional.
Data set [3] can be described thus: The half-life period for the release of paclitaxel after cyclization was determined for the compound. The data set is classed as ADME.
Data set [4] is described as follows: Compound along with dithiothreitol (DTT) was evaluated for its cytotoxicity against L2987 lung carcinoma cells. It counts as functional, cell-based. As to conditions: Homo sapiens.
Data set [5] can be described thus: Dose required for the compound to elicit the Antitumor activity: No effective activity. It counts as functional.
The nature of data set [6]: Percentage tumor cure rate in when treated with 125 mg/Kg dose in athymic nude mice. The data set is classed as functional, Mus musculus.

Take `CC(=O)O[C@H]1C(=O)[C@@]2(C)[C@H]([C@H](OC(=O)c3ccccc3)[C@]3(O)C[C@H](OC(=O)[C@H](O)[C@@H](NC(=O)c4ccccc4)c4ccccc4)C(C)=C1C3(C)C)[C@]1(OC(C)=O)CO[C@@H]1C[C@@H]2O` [PACLITAXEL]: half-maximal inhibition in data set [1] (IC50) was put at 200 nM. This molecule also had a Dose in data set [2] of 30 mg/kg.

For `CC(=O)O[C@H]1C(=O)[C@@]2(C)[C@H]([C@H](OC(=O)c3ccccc3)[C@]3(O)C[C@H](OC(=O)[C@H](OC(=O)C(C)(C)CCSSc4ccccn4)[C@@H](NC(=O)c4ccccc4)c4ccccc4)C(C)=C1C3(C)C)[C@]1(OC(C)=O)CO[C@@H]1C[C@@H]2O`, in data set [3], the T1/2 is listed as 4 min. Further, the half-inhibitory concentration (IC50) (usually the concentration that gives 50% inhibition) in data set [1] was determined as 6200 nM; in data set [4], 200 nM. In data set [5], this molecule showed a Dose of 125 mg/kg.

Take `CC(=O)O[C@H]1C(=O)[C@@]2(C)[C@H]([C@H](OC(=O)c3ccccc3)[C@]3(O)C[C@H](OC(=O)[C@H](OC(=O)C(C)(C)CCSSC4OC(CO)C(O)C(O)C4O)C(NC(=O)c4ccccc4)c4ccccc4)C(C)=C1C3(C)C)[C@]1(OC(C)=O)CO[C@@H]1C[C@@H]2O` (stereo partly drawn): in data set [3], the T1/2 amounted to 12 min. For the same molecule, the IC50 in data set [1] stood at 5700 nM; in data set [4] it was 200 nM. Moreover, the Dose in data set [5] amounted to 85 mg/kg.

Regarding `CC(=O)O[C@H]1C(=O)[C@@]2(C)[C@H]([C@H](OC(=O)c3ccccc3)[C@]3(O)C[C@H](OC(=O)[C@H](OC(=O)C(C)(C)CCSSC[C@H](C)C(=O)N4CCC[C@@H]4C(=O)O)[C@@H](NC(=O)c4ccccc4)c4ccccc4)C(C)=C1C3(C)C)[C@]1(OC(C)=O)CO[C@@H]1C[C@@H]2O`, the T1/2 in data set [3] came out at 25 min. In addition, the Tumor cure in data set [6] was found to be 60%. The IC50 turned out to be 130000 nM in data set [1] and 2300 nM in data set [4].

With `CC(=O)O[C@H]1C(=O)[C@@]2(C)[C@H]([C@H](OC(=O)c3ccccc3)[C@]3(O)C[C@H](OC(=O)[C@H](OC(=O)C(C)(C)CCSSCC(NC(=O)CCC(N)C(=O)O)C(=O)NCC(=O)O)[C@@H](NC(=O)c4ccccc4)c4ccccc4)C(C)=C1C3(C)C)[C@]1(OC(C)=O)CO[C@@H]1C[C@@H]2O` (stereo partly drawn), in data set [3], the T1/2 was greater than 60 min. Also, the half-maximal inhibitory concentration (IC50) in data set [1] was found to be 10100 nM; in data set [4], 400 nM. Also, the Dose in data set [5] was 150 mg/kg.
